Measured values taken from US20140343000A1 (priority 2011, published 2014).

System: recombinant NL4-3 virus (Renilla luciferase in nef, Gag P373S; NLRluc) in MT-2 cells
Test: whole plant or invertebrate
Format: cell-based, HIV
Conditions: Renilla, NL43
How it was run: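 MT-2 cells in RPMI 1640 with 10% heat-inactivated FBS were infected with the reporter virus, made by transfecting the proviral clone into 293T cells, and cultured 4-5 days with serial inhibitor dilutions. Antiviral activity was quantified from Renilla luciferase activity measured in lysed cells.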

Question: With `C=C(C)[C@@H]1CC[C@]2(NCCN3CCC(C(=O)N(C)C)CC3)CC[C@]3(C)[C@H](CC[C@@H]4[C@@]5(C)CC=C(c6ccc(C(=O)O)cc6)C(C)(C)[C@@H]5CC[C@]43C)[C@@H]12` [Example 171, 4-((1R,3aS,5aR,5bR,7aR,11aS,11bR,13aR,13bR)-3a-(2-(4-(dimethylcarbamoyl)piperidin-1-yl)ethylamino)-5a,5b,8,8,11a-pentamethyl-1-(prop-1-en-2-yl)-2,3,3a,4,5,5a,5b,6,7,7a,8,11,11a,11b,12,13,13a,13b-octadecahydro-1H-cyclopenta[a]chrysen-9-yl)benzoic acid] as the molecule, how does the EC50 read?
Answer: Its EC50 is < 100 nM.

Same assay, conditions: Renilla, NL43, luciferase activity in cells infected for 4-5 days with NLRluc recombinants, serial dilutions of inhibitor; class symbols (key in Table 1); read-out: EC50

Question: `C=C(C)[C@@H]1CC[C@]2(NS(=O)(=O)Cc3ccccn3)CC[C@]3(C)[C@H](CC[C@@H]4[C@@]5(C)CC=C(c6ccc(C(=O)O)cc6)C(C)(C)[C@@H]5CC[C@]43C)[C@@H]12` [Example 131, 4-((1R,3aS,5aR,5bR,7aR,11aS,11bR,13aR,13bR)-5a,5b,8,8,11a-pentamethyl-1-(prop-1-en-2-yl)-3a-(pyridin-2-ylmethylsulfonamido)-2,3,3a,4,5,5a,5b,6,7,7a,8,11,11a,11b,12,13,13a,13b-octadecahydro-1H-cyclopenta[a]chrysen-9-yl)benzoic acid] was tested. Which EC50 did it give?
Answer: The EC50 was < 100 nM.

Question: With `C=C(C)[C@@H]1CC[C@]2(NC(=O)N(CCCO)CCN3CCS(=O)(=O)CC3)CC[C@]3(C)[C@H](CC[C@@H]4[C@@]5(C)CC=C(c6ccc(C(=O)O)cc6)C(C)(C)[C@@H]5CC[C@]43C)[C@@H]12` [Example 66, 4-((1R,3aS,5aR,5bR,7aR,11aS,11bR,13aR,13bR)-3a-(((2-(1,1-dioxido-4-thiomorpholinyl)ethyl)(3-hydroxypropyl)carbamoyl)amino)-1-isopropenyl-5a,5b,8,8,11a-pentamethyl-2,3,3a,4,5,5a,5b,6,7,7a,8,11,11a,11b,12,13,13a,13b-octadecahydro-1H-cyclopenta[a]chrysen-9-yl)benzoic acid] as the molecule, how does the EC50 read?
Answer: The EC50 was < 100 nM.

Question: With `C=C(C)[C@@H]1CC[C@]2(NCCNc3ncccn3)CC[C@]3(C)[C@H](CC[C@@H]4[C@@]5(C)CC=C(c6ccc(C(=O)O)cc6)C(C)(C)[C@@H]5CC[C@]43C)[C@@H]12` [Example 199, 4-((1R,3aS,5aR,5bR,7aR,11aS,11bR,13aR,13bR)-5a,5b,8,8,11a-pentamethyl-1-(prop-1-en-2-yl)-3a-(2-(pyrimidin-2-ylamino)ethylamino)-2,3,3a,4,5,5a,5b,6,7,7a,8,11,11a,11b,12,13,13a,13b-octadecahydro-1H-cyclopenta[a]chrysen-9-yl)benzoic acid] as the molecule, how does the EC50 read?
Answer: The EC50 was < 100 nM.

Question: With `C=C(C)[C@@H]1CC[C@]2(NCc3cscn3)CC[C@]3(C)[C@H](CC[C@@H]4[C@@]5(C)CC=C(c6ccc(C(=O)O)cc6)C(C)(C)[C@@H]5CC[C@]43C)[C@@H]12` [Example 161, 4-((1R,3aS,5aR,5bR,7aR,11aS,11bR,13aR,13bR)-5a,5b,8,8,11a-pentamethyl-1-(prop-1-en-2-yl)-3a-(thiazol-4-ylmethylamino)-2,3,3a,4,5,5a,5b,6,7,7a,8,11,11a,11b,12,13,13a,13b-octadecahydro-1H-cyclopenta[a]chrysen-9-yl)benzoic acid] as the molecule, how does the EC50 read?
Answer: The EC50 was < 100 nM.

Question: With `C=C(C)[C@@H]1CC[C@]2(NC(=O)CN3CC(F)(F)C3)CC[C@]3(C)[C@H](CC[C@@H]4[C@@]5(C)CC=C(c6ccc(C(=O)O)cc6)C(C)(C)[C@@H]5CC[C@]43C)[C@@H]12` [Example 94, 4-((1R,3aS,5aR,5bR,7aR,11aS,11bR,13aR,13bR)-3a-(2-(3,3-difluoroazetidin-1-yl)acetamido)-5a,5b,8,8,11a-pentamethyl-1-(prop-1-en-2-yl)-2,3,3a,4,5,5a,5b,6,7,7a,8,11,11a,11b,12,13,13a,13b-octadecahydro-1H-cyclopenta[a]chrysen-9-yl)benzoic acid] as the molecule, how does the EC50 read?
Answer: Its EC50 is < 100 nM.

Question: For `C=C(C)[C@@H]1CC[C@]2(NC(=O)N(CCCN(C)C)CCCN(C)C)CC[C@]3(C)[C@H](CC[C@@H]4[C@@]5(C)CC=C(c6ccc(C(=O)O)cc6)C(C)(C)[C@@H]5CC[C@]43C)[C@@H]12` [Example 30, 4-((1R,3aS,5aR,5bR,7aR,11aS,11bR,13aR,13bR)-3a-(3,3-bis(3-(dimethylamino)propyl)ureido)-5a,5b,8,8,11a-pentamethyl-1-(prop-1-en-2-yl)-2,3,3a,4,5,5a,5b,6,7,7a,8,11,11a,11b,12,13,13a,13b-octadecahydro-1H-cyclopenta[a]chrysen-9-yl)benzoic acid], which EC50 is on record?
Answer: The EC50 was < 100 nM.

Question: `C=C(C)[C@@H]1CC[C@]2(NCCN3CCN(S(C)(=O)=O)CC3)CC[C@]3(C)[C@H](CC[C@@H]4[C@@]5(C)CC=C(c6ccc(C(=O)O)c(F)c6)C(C)(C)[C@@H]5CC[C@]43C)[C@@H]12` [Example A8] was tested. Which EC50 did it give?
Answer: The EC50 was < 100 nM.

Question: Which EC50 does the source give for `C=C(C)[C@@H]1CC[C@]2(NC(=O)CN[C@H](CO)c3ccccc3)CC[C@]3(C)[C@H](CC[C@@H]4[C@@]5(C)CC=C(c6ccc(C(=O)O)cc6)C(C)(C)[C@@H]5CC[C@]43C)[C@@H]12` [Example 108, 4-((1R,3aS,5aR,5bR,7aR,11aS,11bR,13aR,13bR)-3a-(2-((S)-2-hydroxy-1-phenylethylamino)acetamido)-5a,5b,8,8,11a-pentamethyl-1-(prop-1-en-2-yl)-2,3,3a,4,5,5a,5b,6,7,7a,8,11,11a,11b,12,13,13a,13b-octadecahydro-1H-cyclopenta[a]chrysen-9-yl)benzoic acid] here?
Answer: The EC50 was < 100 nM.

Question: How did the EC50 turn out when `C=C(C)[C@@H]1CC[C@]2(NC(=O)Cn3cnnn3)CC[C@]3(C)[C@H](CC[C@@H]4[C@@]5(C)CC=C(c6ccc(C(=O)O)cc6)C(C)(C)[C@@H]5CC[C@]43C)[C@@H]12` [Example 103, 4-((1R,3aS,5aR,5bR,7aR,11aS,11bR,13aR,13bR)-3a-(2-(1H-tetrazol-1-yl)acetamido)-5a,5b,8,8,11a-pentamethyl-1-(prop-1-en-2-yl)-2,3,3a,4,5,5a,5b,6,7,7a,8,11,11a,11b,12,13,13a,13b-octadecahydro-1H-cyclopenta[a]chrysen-9-yl)benzoic acid] was run?
Answer: The EC50 was < 100 nM.

Question: How did the EC50 turn out when `C=C(C)[C@@H]1CC[C@]2(NC(=O)N3CCCN(C(C)=O)CC3)CC[C@]3(C)[C@H](CC[C@@H]4[C@@]5(C)CC=C(c6ccc(C(=O)O)cc6)C(C)(C)[C@@H]5CC[C@]43C)[C@@H]12` [Example 35, 4-((1R,3aS,5aR,5bR,7aR,11aS,11bR,13aR,13bR)-3a-(4-acetyl-1,4-diazepane-1-carboxamido)-5a,5b,8,8,11a-pentamethyl-1-(prop-1-en-2-yl)-2,3,3a,4,5,5a,5b,6,7,7a,8,11,11a,11b,12,13,13a,13b-octadecahydro-1H-cyclopenta[a]chrysen-9-yl)benzoic acid] was run?
Answer: The EC50 was < 100 nM.

Question: Which EC50 does the source give for `CC(C)[C@@H]1CC[C@]2(NCCN3CCC(S(C)(=O)=O)CC3)CC[C@]3(C)[C@H](CC[C@@H]4[C@@]5(C)CC[C@H](c6ccc(C(=O)O)cc6)C(C)(C)[C@@H]5CC[C@]43C)[C@@H]12` [Example B18, 4-((1S,3aS,5aR,5bR,7aS,9S,11aS,11bR,13aR,13bR)-1-isopropyl-5a,5b,8,8,11a-pentamethyl-3a-((2-(4-(methylsulfonyl)piperidin-1-yl)ethyl)amino)icosahydro-1H-cyclopenta[a]chrysen-9-yl)benzoic acid] here?
Answer: The EC50 was < 100 nM.

Question: Which EC50 does the source give for `C=C(C)[C@@H]1CC[C@]2(NC(=O)OC)CC[C@]3(C)[C@H](CC[C@@H]4[C@@]5(C)CC=C(c6ccc(C(=O)O)cc6)C(C)(C)[C@@H]5CC[C@]43C)[C@@H]12` [Example 36, 4-((1R,3aS,5aR,5bR,7aR,11aS,11bR,13aR,13bR)-3a-(methoxycarbonylamino)-5a,5b,8,8,11a-pentamethyl-1-(prop-1-en-2-yl)-2,3,3a,4,5,5a,5b,6,7,7a,8,11,11a,11b,12,13,13a,13b-octadecahydro-1H-cyclopenta[a]chrysen-9-yl)benzoic acid] here?
Answer: Its EC50 is < 100 nM.

Question: How did the EC50 turn out when `C=C(C)[C@@H]1CC[C@]2(NCCS(=O)(=O)CCO)CC[C@]3(C)[C@H](CC[C@@H]4[C@@]5(C)CC=C(c6ccc(C(=O)O)cc6)C(C)(C)[C@@H]5CC[C@]43C)[C@@H]12` [Example 135, 4-((1R,3aS,5aR,5bR,7aR,11aS,11bR,13aR,13bR)-3a-(2-(2-hydroxyethylsulfonyl)ethylamino)-5a,5b,8,8,11a-pentamethyl-1-(prop-1-en-2-yl)-2,3,3a,4,5,5a,5b,6,7,7a,8,11,11a,11b,12,13,13a,13b-octadecahydro-1H-cyclopenta[a]chrysen-9-yl)benzoic acid] was run?
Answer: The EC50 was < 100 nM.

Question: For `C=C(C)[C@@H]1CC[C@]2(NC(=O)C(CC)NC3CCS(=O)(=O)C3)CC[C@]3(C)[C@H](CC[C@@H]4[C@@]5(C)CC=C(c6ccc(C(=O)O)cc6)C(C)(C)[C@@H]5CC[C@]43C)[C@@H]12` (stereo partly drawn) [Example 116, benzoic acid, 4-[(1R,3aS,5aR,5bR,7aR,11aS,11bR,13aR,13bR)-2,3,3a,4,5,5a,5b,6,7,7a,8,11,11a,11b,12,13,13a,13b-octadecahydro-5a,5b,8,8,11a-pentamethyl-1-(1-methylethenyl)-3a-[[1-oxo-2-[(tetrahydro-1,1-dioxido-3-thienyl)amino]butyl]amino]-1H-cyclopenta[a]chrysen-9-yl]], which EC50 is on record?
Answer: Its EC50 is < 100 nM.

Question: With `C=C(C)[C@@H]1CC[C@]2(NCCN3CCCCS3(=O)=O)CC[C@]3(C)[C@H](CC[C@@H]4[C@@]5(C)CC=C(c6ccc(C(=O)O)cc6)C(C)(C)[C@@H]5CC[C@]43C)[C@@H]12` [Example B32, 4-((1R,3aS,5aR,5bR,7aR,11aS,11bR,13aR,13bR)-3a-((2-(1,1-dioxido-1,2-thiazinan-2-yl)ethyl)amino)-5a,5b,8,8,11a-pentamethyl-1-(prop-1-en-2-yl)-2,3,3a,4,5,5a,5b,6,7,7a,8,11,11a,11b,12,13,13a,13b-octadecahydro-1H-cyclopenta[a]chrysen-9-yl)benzoic acid] as the molecule, how does the EC50 read?
Answer: The EC50 was < 100 nM.
